Experimental data published in doi:10.1101/2025.01.28.635346v1 (bioRxiv, 2025).
Where two headings read alike, the source gives them in different places. Bridge positions count the residues as written; N and C are the ends. Side chains are listed from the residue outwards. Peptide text beside a SMILES is read from it. * marks the point of attachment. Butanoyl(4-(4-I-phenyl)) = O=C(CCCc1ccc(I)cc1)*; PEG2 = NCCOCCOCCC(=O)O

Legend:
[1] = Plasma stability, human plasma; assay type: in vitro ADME
[2] = Hepatocyte stability, cryopreserved mouse hepatocytes; assay type: in vitro ADME
[3] = Plasma protein binding, rapid equilibrium dialysis, human plasma; assay type: in vitro ADME; settings: for fraction unbound at 4 h, 2 μM: human, plasma, pH 7.4
[4] = biological target: ADORA2A (Homo sapiens, UniProt P29274); experiment: Safetyscan47 GPCR Calcium Flux, Agonist; assay type: cell-based; settings: for Emax: read-out: Max Response
Chain of ADORA2A (P29274 whole entry): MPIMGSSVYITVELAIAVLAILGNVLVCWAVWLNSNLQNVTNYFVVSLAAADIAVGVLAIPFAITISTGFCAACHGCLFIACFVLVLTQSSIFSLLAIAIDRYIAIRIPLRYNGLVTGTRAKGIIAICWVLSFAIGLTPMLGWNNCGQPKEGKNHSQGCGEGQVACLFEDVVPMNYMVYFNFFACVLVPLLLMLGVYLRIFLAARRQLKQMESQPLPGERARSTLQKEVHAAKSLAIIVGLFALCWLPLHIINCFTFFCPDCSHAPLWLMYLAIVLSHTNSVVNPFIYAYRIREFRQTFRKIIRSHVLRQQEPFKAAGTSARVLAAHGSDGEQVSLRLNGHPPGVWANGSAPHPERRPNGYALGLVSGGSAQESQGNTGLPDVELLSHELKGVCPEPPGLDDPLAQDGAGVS

[5] = biological target: T1, ADRA1A (Homo sapiens, UniProt P35348); experiment: Safetyscan47 GPCR Calcium Flux, Agonist; assay type: cell-based; settings: for Emax: read-out: Max Response
T1 sequence (P35348 1-466): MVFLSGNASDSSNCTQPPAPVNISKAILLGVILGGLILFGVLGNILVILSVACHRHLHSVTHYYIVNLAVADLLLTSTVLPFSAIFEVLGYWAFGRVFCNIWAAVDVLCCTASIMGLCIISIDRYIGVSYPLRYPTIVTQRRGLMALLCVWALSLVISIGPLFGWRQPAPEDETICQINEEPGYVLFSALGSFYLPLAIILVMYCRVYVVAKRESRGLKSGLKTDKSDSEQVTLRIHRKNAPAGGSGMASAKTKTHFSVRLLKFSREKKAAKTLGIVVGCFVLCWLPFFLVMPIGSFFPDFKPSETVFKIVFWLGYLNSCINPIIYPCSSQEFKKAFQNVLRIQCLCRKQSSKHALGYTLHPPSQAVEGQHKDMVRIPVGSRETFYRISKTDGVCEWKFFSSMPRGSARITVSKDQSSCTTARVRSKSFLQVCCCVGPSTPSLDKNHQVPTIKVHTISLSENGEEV

[6] = biological target: CHRM3 (Homo sapiens, UniProt P20309); experiment: Safetyscan47 GPCR Calcium Flux, Agonist; assay type: cell-based; settings: for Emax: read-out: Max Response
Chain of CHRM3 (P20309 whole entry): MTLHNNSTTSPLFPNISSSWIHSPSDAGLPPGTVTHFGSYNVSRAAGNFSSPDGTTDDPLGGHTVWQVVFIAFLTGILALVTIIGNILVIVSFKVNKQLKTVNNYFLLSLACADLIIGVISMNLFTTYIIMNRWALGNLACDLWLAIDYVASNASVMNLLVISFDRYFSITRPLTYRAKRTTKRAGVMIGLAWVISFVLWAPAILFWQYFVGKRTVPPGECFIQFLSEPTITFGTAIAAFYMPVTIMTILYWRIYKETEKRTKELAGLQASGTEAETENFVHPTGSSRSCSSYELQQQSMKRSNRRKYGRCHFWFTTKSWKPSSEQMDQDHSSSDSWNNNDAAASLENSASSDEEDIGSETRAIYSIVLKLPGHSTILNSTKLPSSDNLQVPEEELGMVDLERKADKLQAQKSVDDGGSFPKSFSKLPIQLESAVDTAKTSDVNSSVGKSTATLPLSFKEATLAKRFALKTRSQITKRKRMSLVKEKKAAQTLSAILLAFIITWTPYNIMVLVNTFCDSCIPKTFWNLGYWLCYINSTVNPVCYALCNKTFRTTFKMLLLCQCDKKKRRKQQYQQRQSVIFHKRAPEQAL

[7] = biological target: T2, EDNRA (Homo sapiens, UniProt P25101); experiment: Safetyscan47 GPCR Calcium Flux, Agonist; assay type: cell-based; settings: for Emax: read-out: Max Response
T2 sequence (P25101 21-427): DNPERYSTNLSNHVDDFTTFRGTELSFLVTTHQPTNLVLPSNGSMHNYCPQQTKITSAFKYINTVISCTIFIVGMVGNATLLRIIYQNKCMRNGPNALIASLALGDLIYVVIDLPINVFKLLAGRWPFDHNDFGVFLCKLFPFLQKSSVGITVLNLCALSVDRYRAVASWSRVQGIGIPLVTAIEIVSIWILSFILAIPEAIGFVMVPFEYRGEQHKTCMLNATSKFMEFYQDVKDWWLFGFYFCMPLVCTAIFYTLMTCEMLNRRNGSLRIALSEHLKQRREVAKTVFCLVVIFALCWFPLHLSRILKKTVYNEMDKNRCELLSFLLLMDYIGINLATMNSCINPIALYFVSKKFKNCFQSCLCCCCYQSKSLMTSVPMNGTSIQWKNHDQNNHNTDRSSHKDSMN

[8] = biological target: T2, EDNRA; experiment: Safetyscan47 GPCR Calcium Flux, Antagonist; assay type: cell-based; settings: for Emax: read-out: Max Response
[9] = biological target: HTR2B (Homo sapiens, UniProt P41595); experiment: Safetyscan47 GPCR Calcium Flux, Antagonist; assay type: cell-based; settings: for Emax: read-out: Max Response
Chain of HTR2B (P41595 whole entry): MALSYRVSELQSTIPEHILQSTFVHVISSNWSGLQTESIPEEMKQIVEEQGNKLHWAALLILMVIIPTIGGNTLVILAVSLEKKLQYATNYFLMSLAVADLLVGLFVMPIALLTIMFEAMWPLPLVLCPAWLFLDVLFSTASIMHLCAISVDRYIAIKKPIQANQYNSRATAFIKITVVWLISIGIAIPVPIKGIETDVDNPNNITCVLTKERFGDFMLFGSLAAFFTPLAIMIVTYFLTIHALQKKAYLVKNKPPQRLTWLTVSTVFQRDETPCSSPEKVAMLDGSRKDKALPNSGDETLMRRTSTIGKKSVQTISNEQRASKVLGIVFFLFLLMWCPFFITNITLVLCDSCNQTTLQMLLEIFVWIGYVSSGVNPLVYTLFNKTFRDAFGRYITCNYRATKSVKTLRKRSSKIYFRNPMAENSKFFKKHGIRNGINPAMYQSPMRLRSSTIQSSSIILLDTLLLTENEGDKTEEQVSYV

[10] = biological target: ADRB2 (Homo sapiens, UniProt P07550); experiment: Safetyscan47 GPCR cAMP, Agonist; assay type: cell-based; settings: for Emax: read-out: Max Response
Chain of ADRB2 (P07550 whole entry): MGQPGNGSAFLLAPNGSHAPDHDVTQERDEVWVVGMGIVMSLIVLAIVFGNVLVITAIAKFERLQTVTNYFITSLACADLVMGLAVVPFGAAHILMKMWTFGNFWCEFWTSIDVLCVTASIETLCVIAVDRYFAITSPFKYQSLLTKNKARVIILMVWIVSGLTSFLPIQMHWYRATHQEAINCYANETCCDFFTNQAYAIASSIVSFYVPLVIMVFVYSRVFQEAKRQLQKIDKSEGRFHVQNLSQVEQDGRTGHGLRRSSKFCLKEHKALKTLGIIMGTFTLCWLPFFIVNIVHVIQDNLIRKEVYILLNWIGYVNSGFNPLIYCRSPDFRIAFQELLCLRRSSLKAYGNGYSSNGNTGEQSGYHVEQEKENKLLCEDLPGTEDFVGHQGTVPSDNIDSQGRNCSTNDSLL

[11] = biological target: T3, HTR1A (Homo sapiens, UniProt P08908); experiment: Safetyscan47 GPCR cAMP, Agonist; assay type: cell-based; settings: for Emax: read-out: Max Response
T3 sequence (P08908 1-422): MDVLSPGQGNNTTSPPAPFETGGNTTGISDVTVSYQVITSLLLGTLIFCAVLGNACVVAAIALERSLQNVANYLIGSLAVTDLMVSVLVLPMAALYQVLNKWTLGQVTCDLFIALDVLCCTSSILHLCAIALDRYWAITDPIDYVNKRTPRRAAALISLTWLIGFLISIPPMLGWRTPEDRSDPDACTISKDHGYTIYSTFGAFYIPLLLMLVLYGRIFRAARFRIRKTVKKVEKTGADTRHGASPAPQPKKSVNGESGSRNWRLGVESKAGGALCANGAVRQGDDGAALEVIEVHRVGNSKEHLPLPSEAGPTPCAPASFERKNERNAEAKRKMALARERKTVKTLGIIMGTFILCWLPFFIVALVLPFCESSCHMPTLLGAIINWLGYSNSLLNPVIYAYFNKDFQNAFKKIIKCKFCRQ

[12] = biological target: OPRD1 (Homo sapiens, UniProt P41143); experiment: Safetyscan47 GPCR cAMP, Agonist; assay type: cell-based; settings: for Emax: read-out: Max Response
Chain of OPRD1 (P41143 whole entry): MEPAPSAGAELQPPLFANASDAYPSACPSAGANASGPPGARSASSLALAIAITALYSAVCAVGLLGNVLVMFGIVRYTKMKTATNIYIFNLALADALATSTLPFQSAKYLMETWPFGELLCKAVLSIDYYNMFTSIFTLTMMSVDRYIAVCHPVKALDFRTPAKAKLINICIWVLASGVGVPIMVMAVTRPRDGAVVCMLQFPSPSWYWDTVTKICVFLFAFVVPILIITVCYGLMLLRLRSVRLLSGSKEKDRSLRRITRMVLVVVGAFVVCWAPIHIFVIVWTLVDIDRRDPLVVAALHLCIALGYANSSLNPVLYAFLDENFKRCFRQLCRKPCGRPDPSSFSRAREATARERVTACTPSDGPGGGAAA

[13] = biological target: T3, HTR1A; experiment: Safetyscan47 GPCR cAMP, Antagonist; assay type: cell-based; settings: for Emax: read-out: Max Response
[14] = biological target: hERG (Homo sapiens, UniProt Q12809); experiment: Safetyscan47 Ion Channel, Blocker; assay type: cell-based
Chain of hERG (Q12809 whole entry): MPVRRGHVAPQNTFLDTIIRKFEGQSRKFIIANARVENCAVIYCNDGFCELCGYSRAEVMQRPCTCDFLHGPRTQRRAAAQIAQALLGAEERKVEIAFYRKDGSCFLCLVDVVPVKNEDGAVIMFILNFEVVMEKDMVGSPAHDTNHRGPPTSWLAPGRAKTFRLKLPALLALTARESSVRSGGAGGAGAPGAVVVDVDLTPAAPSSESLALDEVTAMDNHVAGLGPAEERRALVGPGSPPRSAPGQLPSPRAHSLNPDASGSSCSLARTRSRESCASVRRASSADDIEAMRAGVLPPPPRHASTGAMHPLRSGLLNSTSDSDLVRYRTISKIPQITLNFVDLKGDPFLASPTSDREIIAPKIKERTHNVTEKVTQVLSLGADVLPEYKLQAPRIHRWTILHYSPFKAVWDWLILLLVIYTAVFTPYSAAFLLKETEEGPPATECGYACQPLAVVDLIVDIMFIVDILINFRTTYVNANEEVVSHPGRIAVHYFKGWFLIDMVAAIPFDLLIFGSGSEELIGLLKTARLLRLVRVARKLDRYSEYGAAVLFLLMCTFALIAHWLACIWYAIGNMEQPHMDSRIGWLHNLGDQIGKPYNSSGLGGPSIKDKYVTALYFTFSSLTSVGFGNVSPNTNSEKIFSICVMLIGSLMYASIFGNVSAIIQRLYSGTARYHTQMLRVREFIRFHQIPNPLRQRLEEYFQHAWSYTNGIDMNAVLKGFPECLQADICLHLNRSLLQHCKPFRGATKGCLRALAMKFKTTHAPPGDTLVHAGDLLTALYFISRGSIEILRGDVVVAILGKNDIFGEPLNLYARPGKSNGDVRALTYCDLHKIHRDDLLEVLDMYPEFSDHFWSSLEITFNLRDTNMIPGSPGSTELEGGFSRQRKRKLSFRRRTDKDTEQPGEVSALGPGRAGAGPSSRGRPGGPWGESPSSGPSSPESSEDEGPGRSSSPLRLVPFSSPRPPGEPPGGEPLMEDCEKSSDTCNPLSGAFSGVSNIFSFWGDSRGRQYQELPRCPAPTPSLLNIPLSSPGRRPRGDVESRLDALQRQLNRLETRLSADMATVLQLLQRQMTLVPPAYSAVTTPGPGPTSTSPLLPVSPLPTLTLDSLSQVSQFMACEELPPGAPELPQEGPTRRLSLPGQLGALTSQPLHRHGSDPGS

[15] = biological target: INSR (Homo sapiens, UniProt P06213); experiment: Safetyscan47 Kinases Binding, Inhibitor; settings: for Emax: read-out: Max Response
[16] = biological target: COX1 (Homo sapiens, UniProt P23219); experiment: Safetyscan47 Non-Kinase Enzymes Enzymatic, Inhibitor; assay type: biochemical; settings: for Emax: read-out: Max Response
[17] = biological target: PDE3A (Homo sapiens, UniProt Q14432); experiment: as above; assay type: biochemical; settings: for Emax: read-out: Max Response
[18] = biological target: DAT (Homo sapiens, UniProt Q01959); experiment: Safetyscan47 Transporter, Blocker; assay type: cell-based; settings: for Emax: read-out: Max Response
Chain of DAT (Q01959 whole entry): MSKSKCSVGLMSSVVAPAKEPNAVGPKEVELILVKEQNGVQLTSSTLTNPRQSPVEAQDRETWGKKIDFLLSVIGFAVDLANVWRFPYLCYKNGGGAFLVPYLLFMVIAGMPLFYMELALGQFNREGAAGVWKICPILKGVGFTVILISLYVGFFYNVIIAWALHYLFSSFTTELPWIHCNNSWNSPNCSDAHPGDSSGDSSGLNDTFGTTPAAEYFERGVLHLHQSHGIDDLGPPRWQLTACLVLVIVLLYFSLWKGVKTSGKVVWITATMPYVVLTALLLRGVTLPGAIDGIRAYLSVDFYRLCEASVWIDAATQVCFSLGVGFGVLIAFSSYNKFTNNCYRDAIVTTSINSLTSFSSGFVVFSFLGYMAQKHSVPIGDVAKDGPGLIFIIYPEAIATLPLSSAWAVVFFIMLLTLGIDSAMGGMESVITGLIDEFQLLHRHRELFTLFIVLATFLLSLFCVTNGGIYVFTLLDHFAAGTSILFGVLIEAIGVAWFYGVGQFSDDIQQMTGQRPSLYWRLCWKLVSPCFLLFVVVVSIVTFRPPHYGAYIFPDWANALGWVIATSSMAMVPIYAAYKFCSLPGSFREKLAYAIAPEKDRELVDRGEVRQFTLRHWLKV

[19] = biological target: SERT (Homo sapiens, UniProt P31645); experiment: Safetyscan47 Transporter, Blocker; assay type: cell-based; settings: for Emax: read-out: Max Response
Chain of SERT (P31645 whole entry): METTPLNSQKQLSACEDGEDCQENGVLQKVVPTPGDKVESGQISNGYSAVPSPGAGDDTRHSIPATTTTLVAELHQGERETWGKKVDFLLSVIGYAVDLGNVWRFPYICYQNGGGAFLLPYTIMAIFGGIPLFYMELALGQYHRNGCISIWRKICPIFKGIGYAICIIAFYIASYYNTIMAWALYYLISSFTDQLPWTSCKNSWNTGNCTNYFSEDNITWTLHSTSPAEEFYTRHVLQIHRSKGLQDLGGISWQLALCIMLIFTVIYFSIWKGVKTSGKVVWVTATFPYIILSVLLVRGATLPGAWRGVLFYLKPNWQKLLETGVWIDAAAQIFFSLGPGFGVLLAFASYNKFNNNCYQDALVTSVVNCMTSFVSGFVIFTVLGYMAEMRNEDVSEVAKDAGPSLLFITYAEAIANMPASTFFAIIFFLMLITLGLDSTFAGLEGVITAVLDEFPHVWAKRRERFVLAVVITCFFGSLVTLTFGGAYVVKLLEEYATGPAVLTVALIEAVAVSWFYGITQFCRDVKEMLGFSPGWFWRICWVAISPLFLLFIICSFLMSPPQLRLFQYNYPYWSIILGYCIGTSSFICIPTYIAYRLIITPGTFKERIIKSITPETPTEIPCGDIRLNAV

Row | Structure (SMILES) | remaining at 0.5 h, 2 μM [1] | remaining at 4 h, 2 μM [1] | half-life at 2 μM [2] | remaining at 1 h, 2 μM [2] | remaining at 3 h, 2 μM [2] | fraction unbound at 4 h, 2 μM [3] | EC50 [4] | Emax [4] | EC50 [5] | Emax [5] | EC50 [6] | Emax [6] | EC50 [7] | Emax [7] | IC50 [8] | Emax [8] | IC50 [9] | Emax [9] | EC50 [10] | Emax [10] | also measured
1 | CC[C@H](C)[C@H](NC(=O)[C@H](CC(C)C)NC(=O)[C@H](CC(=O)O)NC(=O)CNC(=O)[C@H](CCCNC(=N)N)NC(=O)[C@@H](NC(=O)[C@H](Cc1ccccc1)NC(=O)[C@H](Cc1ccc(O)cc1)NC(=O)[C@@H]1CCC(=O)NCC(=O)NCC(=O)N[C@@H](CCCNC(=N)N)C(=O)NCC(=O)N[C@@H](Cc2c[nH]cn2)C(=O)N[C@@H](C(C)C)C(=O)N2CCC[C@H]2C(=O)N1)C(C)C)C(=O)N[C@@H](CO)C(=O)N[C@@H](Cc1ccccc1)C(=O)N[C@@H](Cc1ccc(O)cc1)C(=O)N[C@@H](CCCCN)C(=O)O [lassotide 36] (GGRGHVPEYFVRGDLISFYK-OH; lactam N-8) | 91.9% | 93.2% | 3.57 h | 98.7% | 56.9% | 0.126 | > 45 µM | 38.9% | > 45 µM | 2.01% | > 45 µM | 2.89% | > 45 µM | 1.75% | > 45 µM | 2.52% | > 45 µM | 11.8% | > 45 µM | 0% | EC50 [11]: > 45 µM; Emax [11]: 0%; EC50 [12]: > 45 µM; Emax [12]: 6.18%; IC50 [13]: > 45 µM; Emax [13]: 0%; IC50 [14]: > 45 µM; Emax ([14]; human): 5.06%; IC50 [15]: > 45 µM; Emax [15]: 17.4%; IC50 [16]: > 45 µM; Emax [16]: 21%; IC50 [17]: > 45 µM; Emax [17]: 0%; IC50 [18]: > 45 µM; Emax [18]: 29.8%; IC50 [19]: > 45 µM; Emax [19]: 17.5%
2 | CC[C@H](C)[C@H](NC(=O)[C@H](CC(C)C)NC(=O)[C@H](CC(=O)O)NC(=O)CNC(=O)[C@H](CCCNC(=N)N)NC(=O)[C@@H](NC(=O)[C@H](Cc1ccccc1)NC(=O)[C@H](Cc1ccc(O)cc1)NC(=O)[C@@H]1CCC(=O)NCC(=O)NCC(=O)N[C@@H](CCCNC(=N)N)C(=O)NCC(=O)N[C@@H](Cc2c[nH]cn2)C(=O)N[C@@H](C(C)C)C(=O)N2CCC[C@H]2C(=O)N1)C(C)C)C(=O)N[C@@H](CO)C(=O)N[C@@H](Cc1ccccc1)C(=O)N[C@@H](Cc1ccc(O)cc1)C(=O)N[C@@H](CCCCNC(=O)CCOCCOCCNC(=O)CCCc1ccc(I)cc1)C(=O)O [lassotide 47] (GGRGHVPEYFVRGDLISFYK([PEG2-Butanoyl(4-(4-I-phenyl))])-OH; lactam N-8) | 95.1% | 92.2% | 2.69 h | 87.8% | 46.5% | 0.006 | > 45 µM | 0% | > 45 µM | 0.52% | > 45 µM | 1.93% | > 45 µM | 2.94% | > 45 µM | 0% | > 45 µM | 13.4% | > 45 µM | 0% | Plasma protein binding, %Recovery ([3]; human plasma, RED, 2 μM, 4 h, 37°C): 101%; EC50 [11]: > 45 µM; Emax [11]: 30.1%; EC50 [12]: > 45 µM; Emax [12]: 17.4%; IC50 [13]: > 45 µM; Emax [13]: 0%; Emax ([14]; human): 1.41%; IC50 ([14]; human): > 45 µM; IC50 [15]: > 45 µM; Emax [15]: 11.2%; IC50 [16]: > 45 µM; Emax [16]: 19.4%; IC50 [17]: > 45 µM; Emax [17]: 0.63%; IC50 [18]: > 45 µM; Emax [18]: 13%; IC50 [19]: > 45 µM; Emax [19]: 22.5%
